# In patent publication US20250179024A1, “AMYLOID AND ASSOCIATED PATHOLOGY MODULATORS AND METHODS THEREOF” (Jawaharlal Nehru Centre for Advanced Scientific Research, priority 2022, published 2025):
# Columns and labels:
# Aβ oligomers = biological target: T1, Aβ oligomers (Homo sapiens, UniProt P05067); test: Dot blot assay of Aβ oligomer inhibition (A11 antibody); assay type: biochemical; details: Aβ 10 μM, NMIs 20 μM, 4° C., 24 h
# T1 construct: is a 42 amino acid proteolytic product from the amyloid precursor protein; purchased Invitrogen
# T1 sequence (P05067 672-713 limits assumed): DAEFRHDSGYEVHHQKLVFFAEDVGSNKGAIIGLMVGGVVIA
# Experimental: Aggregation modulation by toxic Aβ aggregates were assessed and were quantified by dot blot assay. Aβ peptide (10 μM) was dissolved in phosphate buffered saline (PBS, 10 mM, pH 7.4), incubated alone and with NMIs (20 μM) at 37° C. for 48 h. For concentration dependent inhibition, 10 μM Aβ peptide was incubated with 1, 2, 5, 10 and 20 μM of NMIs and incubated. Samples for oligomer inhibition studies were prepared by incubating Aβ alone and with NMIs at 4° C. for 24 and subjected to dot blot analysis. For dissolution studies, Aβ peptide alone was incubated in PBS for 48 h to prepare fibrils and then incubated with NMIs further for 48 h. For dot blot experiment, 5 μL of sample was blotted on activated PVDF (polyvinylidene fluoride) membrane in triplicates and air dried. The membrane was blocked with skimmed milk powder for 1 h at room temperature. The blot paper was washed with tris-buffered saline with 0.01% Tween 20 (TBST) three times for 5 min. Blot paper was treated with fibril specific OC primary antibody (Rabbit, 1:1000 dilution) overnight at 4° C. For oligomers blot A11 anti-oligomer antibody (Rabbit 1:1000) was used. […] Blots were analyzed and quantified by ImageJ software. […] The ability of NMIs (M3) to inhibit the formation of Aβ oligomers was assessed by dot blot assay. […]
# TNFα = test: Western blot of TNFα in C6 microglia; assay type: cell-based; details: LPS 500 ng/mL, Aβ 5 μM, compound 10 μM; Aβ alone 2.35 fold
# Experimental: (§1) Western blot analysis was performed to analyse the changes in the protein levels from cell lysates. SH-SY5Y and C6 cells were cultured to 80% confluence in T25 flask, trypsinised and seed into 12 well plate. The cells were cultured for 30 h and then treated with LPS (500 ng/mL) in low serum media for 6 h. Then the cells were treated with Aβ42 (5 μM) alone and with NMIs (M3) (10 μM) for 18 h. The cells were harvested by trypsinisation and the protein was extracted in RIPA lysis buffer with protease inhibitor cocktail (1×). Briefly cells were washed with dPBS and lysed in […] of RIPA lysis buffer with gentle shaking in 4° C. for 30 min. Then the cells were centrifuged at 16000 g for 20 min and the supernatant containing protein was collected and quantified by Bradford assay. The protein lysate was subjected to SDS-PAGE (12% resolving gel) and transferred to PVDF membrane. The blot paper was blocked with 5% skim milk powder for 1 h at room temperature and then washed thrice with TBST. The blots were incubated with primary antibodies for 20 h at 4° C. The blots were washed thrice with TBST for 5 min and then incubated with anti-rabbit HRP-conjugated secondary antibodies for 1 h at room temperature. […] All the western blots were quantified by using ImageJ, data was plotted and analysed by GraphPad prism5. […]
# IL6 = test: Western blot of IL6 in C6 microglia; assay type: cell-based; details: LPS 500 ng/mL, Aβ 5 μM, compound 10 μM; changes statistically insignificant
# Experimental: as §1
# SH-SY5Y cells = test: Mitochondrial membrane potential (MMP) measurement, Mitotracker Orange; assay type: cell-based; details: Aβ 20 μM, 18 h; for MMP relative to control (100%): Aβ alone 70%
# Experimental: For quantifying relative change in MMP, SH-SY5Y cells were seeded into 96 plates and incubated. After 24 h, cells were treated with Aβ (20 μM) alone and with two different concentrations of NMIs (M3) (20 and 50 μM) for 18 h and stained with Mitotracker Orange (500 nM) in media for 15 min followed by washing with PBS twice. Then quickly fluorescence was measured (λex=554 nm and λem=576 nm) by Spectramax multi-well plate reader in well scan mode (>80 points, with 6 flashes per read) and averaged the value. The relative fluorescence of treatments in comparison with control was calculated to assess the change in MMP.
# For fluorescence imaging, cells were seeded into glass bottom dishes and incubated for 24 h. Then treated with Aβ (20 μM) alone and with NMIs (M3) (50 μM) in low serum media for 18 h and stained with Mitotracker Orange (500 nM) in media for 15 min. Cells were washed with PBS thrice and imaged in live cell set up in Rhodamine channel using 63× oil immersion using Leica DMi8 fluorescence microscope.
# The compound M3 with aggregation modulation and antioxidant activity potentially prevent Aβ mediated mitochondrial damage. Quantitatively measurement of mitochondrial membrane potential (MMP) changes was carried out. SH-SY5Y cells were cultured in 96 well plate, treated with Aβ (20 μM) alone and with different concentrations of M3 (20 μM and 50 μM) for 18 h and relative MMP was measured using MitoOrange fluorescence, a MMP-dependent mitochondrial probe. MMP of Aβ treated cells dropped to 70% compared to control (100%) reflecting the functional damage to mitochondria. Upon treatment with M3 at two concentrations 20 μM and 50 µM, MMP was improved to 88% and 93%, respectively, which indicated prevention of mitochondrial damage (FIG. 14A).
# Changes in MMP were visualized by treating the cells with Aβ (20 μM) alone and with M3 (50 μM) for 18 h followed by staining with MitoOrange. […] The ability of M3 to modulate Aβ-induced ROS levels in mitochondria was evaluated by the MitoSOX probe. […]
# NF-kβ = test: Western blot of NF-kβ in C6 microglia; assay type: cell-based; details: LPS 500 ng/mL, Aβ 5 μM, compound 10 μM; Aβ alone 2.62 fold
# Experimental: Western blot analysis was performed to analyse the changes in the protein levels from cell lysates. SH-SY5Y and C6 cells were cultured to 80% confluence in T25 flask, trypsinised and seed into 12 well plate. The cells were cultured for 30 h and then treated with LPS (500 ng/mL) in low serum media for 6 h. Then the cells were treated with Aβ42 (5 μM) alone and with NMIs (M3) (10 μM) for 18 h. The cells were harvested by trypsinisation and the protein was extracted in RIPA lysis buffer with protease inhibitor cocktail (1×). Briefly cells were washed with dPBS and lysed in […] of RIPA lysis buffer with gentle shaking in 4° C. for 30 min. Then the cells were centrifuged at 16000 g for 20 min and the supernatant containing protein was collected and quantified by Bradford assay. The protein lysate was subjected to SDS-PAGE (12% resolving gel) and transferred to PVDF membrane. The blot paper was blocked with 5% skim milk powder for 1 h at room temperature and then washed thrice with TBST. […] All the western blots were quantified by using ImageJ, data was plotted and analysed by GraphPad prism5.
# NF-kβ is a tangible drug target for neuroinflammation and AD. […] C6 microglia were primed with LPS (500 ng/mL) followed by Aβ (5 μM) treatment to induce inflammation, which was monitored by the change in NF-kβ levels in western blot analysis (FIG. 16F).
Structure (SMILES),oligomer inhibition (Aβ oligomers) [%],TNFα level in comparison to control (TNFα) [fold],IL6 level (IL6),MMP relative to control (100%) (SH-SY5Y cells; compound 20 μM) [%],MMP by fluorescence imaging (SH-SY5Y cells; compound 50 μM),MMP relative to control (100%) (SH-SY5Y cells; compound 50 µM) [%],NF-kβ level compared to control (NF-kβ) [fold]
"CN(C)c1ccc2c3c(cccc13)C(=O)N(CCc1ccc(O)c(O)c1)C2=O [M1, 2-(3,4-dihydroxyphenethyl)-6-(dimethylamino)-1H-benzo[de]isoquinoline-1,3(2H)-dione]",33,–,–,–,–,–,–
"O=C1c2cccc3c(N(Cc4ccccn4)Cc4ccccn4)ccc(c23)C(=O)N1CCc1ccc(O)c(O)c1 [M3, 6-(bis(pyridin-2-ylmethyl)amino)-2-(3,4-dihydroxyphenethyl)-1H-benzo[de]isoquinoline-1,3(2H)-dione]",–,1.47,reduced,88,least affected,93,1.78
